# Experiment: Solubility in an organic solvent
# Assay type: physicochemical
# Conditions: 1 μml of compound added to 1 ml solvent, mixed 15 minutes; chloroform for Examples 7 to 8, toluene for Examples 9 to 10 and Comparative Example 1
# Description: Solubility of organic silane compounds synthesized in Examples 7 to 10, and 6,8,11,13-tetra(N,N-diphenylamino)pentacene of Comparative Example 1 in an organic solvent was assessed. More particularly, 1 μml of each compound was added to 1 ml of the following organic solvent, and this was mixed for 15 minutes.
# Examples 9 to 10 and Comparative Example 1
# Each of organic silane compounds of Examples 7 to 10 was dissolved in an organic solvent to obtain a transparent solution.
compound,measurement,value
"c1ccc(N(c2ccccc2)c2ccc(N(c3ccccc3)c3ccccc3)c3cc4c(N(c5ccccc5)c5ccccc5)c5cc6ccccc6cc5c(N(c5ccccc5)c5ccccc5)c4cc23)cc1 [Comparative Example 1, 6,8,11,13-tetra(N,N-diphenylamino)pentacene]",Solubility in an organic solvent,only dispersed and not dissolved in an organic solvent

# Source: US20080207864A1, “Organosilanes, Process For Production of the Same, and Use Thereof” (priority 2004, published 2008)
